Measurements published in ChEMBL document CHEMBL5537177, “Discovery of Potent Antimalarial Type II Kinase Inhibitors with Selectivity over Human Kinases” (J Med Chem, 2024).
pEC50, pIC50: −log10 of the molar value. Calls of active or inactive are those of the source. The rule behind the calls is not given here.

Key:
Plasmodium falciparum [1] = test: microbe, parasite or virus in culture; conditions: Dd2, 72 h
Description: Antimalarial activity against wild-type Plasmodium falciparum Dd2 assessed as reduction in parasitemia incubated for 72 hrs by SYBR green I dye based analysis

Plasmodium falciparum [2] = test: Antimalarial activity against Plasmodium falciparum harboring CARL I1139K mutation assessed as reduction in parasitemia incubated for 72 hrs by SYBR green I dye based analysis; format: functional, organism-based
Plasmodium falciparum [3] = test: Antimalarial activity against Plasmodium falciparum harboring AcAS A597V mutation assessed as reduction in parasitemia incubated for 72 hrs by SYBR green I dye based analysis; format: functional, organism-based
Plasmodium falciparum [4] = test: Antimalarial activity against Plasmodium falciparum harboring PI4K S1320L mutation assessed as reduction in parasitemia incubated for 72 hrs by SYBR green I dye based analysis; format: functional, organism-based
Plasmodium falciparum [5] = test: Antimalarial activity against synchronous blood-stage Plasmodium falciparum 3D7 assessed as log of parasite reduction ratio at 10 times EC50 treated every 24 hrs for 120 hrs followed by compound washout and subsequent addition of RBCs measured after 21 days; format: functional
Plasmodium falciparum [6] = test: Antimalarial activity against synchronous blood-stage Plasmodium falciparum 3D7 assessed as parasite clearance time at 10 times EC50 treated every 24 hrs for 120 hrs followed by compound washout and subsequent addition of RBCs measured after 21 days by parasite reduction ratio assay; format: functional
Plasmodium falciparum [7] = test: Antimalarial activity against synchronous blood-stage Plasmodium falciparum 3D7 assessed as duration of lag phase at 10 times EC50 treated every 24 hrs for 120 hrs followed by compound washout and subsequent addition of RBCs measured after 21 days by parasite reduction ratio assay; format: functional
[8] = (§1) Cytotoxicity against human MCF7 cells assessed as reduction in cell viability incubated for 48 hrs by MTS assay; format: toxicity, cell-based; conditions: human, MCF7 cells
Plasmodium falciparum [9] = test: Antiplasmodial activity against multidrug-resistant Plasmodium falciparum Dd2 at ring stage infected in A+ erythrocytes assessed as parasite growth reduction incubated for 72 hrs by SYBR Green I dye based analysis; format: functional, organism-based; conditions: Dd2, Erythrocyte
[10] = (§2) Cytotoxicity against human HepG2 cells assessed as reduction in cell viability incubated for 48 hrs by MTS assay; format: toxicity, cell-based; conditions: human, HepG2 cells
Plasmodium falciparum [11] = test: Antiplasmodial activity against drug-sensitive Plasmodium falciparum 3D7 at ring stage infected in A+ erythrocytes assessed as parasite growth reduction incubated for 72 hrs by SYBR Green I dye based analysis; format: functional, organism-based; conditions: 3D7, Erythrocyte
[12] = Selectivity index, ratio of EC50 for human MCF7 cells to EC50 for multidrug-resistant Plasmodium falciparum Dd2 at ring stage infected in A+ erythrocytes; format: toxicity, cell-based; conditions: read-out: Ratio EC50
Plasmodium falciparum [13] = test: Resistance index, ratio of EC50 for multidrug-resistant Plasmodium falciparum Dd2 at ring stage infected in A+ erythrocytes to EC50 for drug-sensitive Plasmodium falciparum 3D7 at ring stage infected in A+ erythrocytes; format: organism-based; conditions: human
[14] = Selectivity index, ratio of EC50 for human HepG2 cells to EC50 for multidrug-resistant Plasmodium falciparum Dd2 at ring stage infected in A+ erythrocytes; format: toxicity, cell-based; conditions: read-out: Ratio EC50
Plasmodium falciparum [15] = test: Antimalarial activity against Plasmodium falciparum at ring stage infected erythrocytes assessed as reduction in parasitemia measured after 60 hrs by flow cytometry; format: functional, organism-based; conditions: Erythrocyte
Plasmodium falciparum [16] = test: Antimalarial activity against artemisinin/piperaquine-resistant synchronized early ring stage Plasmodium falciparum IPC 6261 (MRA-1284) clinical isolate assessed as decrease in parasite survival at ring stage at 10 times EC50 treated for 6 hrs followed by compound removal measured after 72 hrs by geimsa staining based microscopy; format: functional, organism-based
MCF7 = test: as §1; format: toxicity, cell-based; conditions: mcf7
[17] = Metabolic stability in mouse liver microsomes assessed as intrinsic clearance; format: ADME, Liver cells
Plasmodium falciparum [18] = test: Antimalarial activity against artemisinin-sensitive synchronized early ring stage Plasmodium falciparum IPC 5188 (MRA-1239) clinical isolate assessed as decrease in parasite survival at ring stage at 10 times EC50 treated for 48 hrs followed by compound removal measured after 72 hrs by geimsa staining based microscopy; format: functional, organism-based
Plasmodium falciparum [19] = test: Antimalarial activity against synchronized early ring stage Plasmodium falciparum 3D7 (MRA-152) clinical isolate assessed as decrease in parasite survival at ring stage at 10 times EC50 treated for 48 hrs followed by compound removal measured after 72 hrs by geimsa staining based microscopy; format: functional, organism-based
Plasmodium falciparum [20] = test: Antimalarial activity against artemisinin-resistant/piperaquine-sensitive synchronized early ring stage Plasmodium falciparum IPC 5202 (MRA-1240) clinical isolate assessed as decrease in parasite survival at ring stage at 10 times EC50 treated for 6 to 48 hrs followed by compound removal measured after 72 hrs by geimsa staining based microscopy; format: functional, organism-based
HepG2 = test: as §2; format: toxicity, cell-based; conditions: hepg2
Plasmodium falciparum [21] = test: Antimalarial activity against artemisinin-resistant synchronized early ring stage Plasmodium falciparum IPC 5202 (MRA-1240) clinical isolate assessed as decrease in parasite survival at ring stage at 10 times EC50 treated for 6 hrs followed by compound removal measured after 72 hrs by geimsa staining based microscopy; format: functional, organism-based
Plasmodium falciparum [22] = test: Antimalarial activity against artemisinin-resistant synchronized early ring stage Plasmodium falciparum IPC 5202 (MRA-1240) clinical isolate assessed as decrease in parasite survival at ring stage at 10 times EC50 treated for 48 hrs followed by compound removal measured after 72 hrs by geimsa staining based microscopy; format: functional, organism-based
Plasmodium falciparum [23] = test: Antimalarial activity against artemisinin/piperaquine-resistant synchronized early ring stage Plasmodium falciparum IPC 6261 (MRA-1284) clinical isolate assessed as decrease in parasite survival at ring stage at 10 times EC50 treated for 48 hrs followed by compound removal measured after 72 hrs by geimsa staining based microscopy; format: functional, organism-based
Plasmodium falciparum [24] = test: Antimalarial activity against artemisinin-sensitive synchronized early ring stage Plasmodium falciparum IPC 5188 (MRA-1239) clinical isolate assessed as decrease in parasite survival at ring stage at 10 times EC50 treated for 6 hrs followed by compound removal measured after 72 hrs by geimsa staining based microscopy; format: functional, organism-based
Plasmodium falciparum [25] = test: Antimalarial activity against artemisinin/piperaquine-sensitive synchronized early ring stage Plasmodium falciparum IPC 5188 (MRA-1239) clinical isolate assessed as decrease in parasite survival at ring stage at 10 times EC50 treated for 6 to 48 hrs followed by compound removal measured after 72 hrs by geimsa staining based microscopy; format: functional, organism-based
Plasmodium falciparum [26] = test: Antimalarial activity against artemisinin/piperaquine-resistant synchronized early ring stage Plasmodium falciparum IPC 6261 (MRA-1284) clinical isolate assessed as decrease in parasite survival at ring stage at 10 times EC50 treated for 6 to 48 hrs followed by compound removal measured after 72 hrs by geimsa staining based microscopy; format: functional, organism-based
Plasmodium falciparum [27] = test: Antimalarial activity against synchronized early ring stage Plasmodium falciparum 3D7 (MRA-152) clinical isolate assessed as decrease in parasite survival at ring stage at 10 times EC50 treated for 6 hrs followed by compound removal measured after 72 hrs by geimsa staining based microscopy; format: functional, organism-based
Plasmodium falciparum [28] = test: Antimalarial activity against synchronized early ring stage Plasmodium falciparum 3D7 (MRA-152) clinical isolate assessed as decrease in parasite survival at ring stage at 10 times EC50 treated for 6 to 48 hrs followed by compound removal measured after 72 hrs by geimsa staining based microscopy; format: functional, organism-based
[29] = Metabolic stability in mouse liver microsomes assessed as half life; format: ADME, Liver cells
[30] = Volume of distribution at steady state in Balb/C mouse at 3 mg/kg, iv; format: ADME, organism-based; conditions: in vivo, read-out: Vdss
[31] = Half life in Balb/C mouse at 3 mg/kg, iv; format: ADME, organism-based; conditions: in vivo
Plasmodium falciparum [32] = test: microbe, parasite or virus in culture; conditions: Dd2, 72 h; remark: listed apart in the source
Description: Antiplasmodial activity against asynchronous Plasmodium falciparum Dd2 assessed as parasite growth reduction incubated for 72 hrs by SYBR Green I dye based analysis

Ephrin type-A receptor 2 = Ephrin type-A receptor 2 (Homo sapiens, UniProt P29317); test: Inhibition of human EphA2 by FRET assay
Chain of Ephrin type-A receptor 2 (P29317 whole entry): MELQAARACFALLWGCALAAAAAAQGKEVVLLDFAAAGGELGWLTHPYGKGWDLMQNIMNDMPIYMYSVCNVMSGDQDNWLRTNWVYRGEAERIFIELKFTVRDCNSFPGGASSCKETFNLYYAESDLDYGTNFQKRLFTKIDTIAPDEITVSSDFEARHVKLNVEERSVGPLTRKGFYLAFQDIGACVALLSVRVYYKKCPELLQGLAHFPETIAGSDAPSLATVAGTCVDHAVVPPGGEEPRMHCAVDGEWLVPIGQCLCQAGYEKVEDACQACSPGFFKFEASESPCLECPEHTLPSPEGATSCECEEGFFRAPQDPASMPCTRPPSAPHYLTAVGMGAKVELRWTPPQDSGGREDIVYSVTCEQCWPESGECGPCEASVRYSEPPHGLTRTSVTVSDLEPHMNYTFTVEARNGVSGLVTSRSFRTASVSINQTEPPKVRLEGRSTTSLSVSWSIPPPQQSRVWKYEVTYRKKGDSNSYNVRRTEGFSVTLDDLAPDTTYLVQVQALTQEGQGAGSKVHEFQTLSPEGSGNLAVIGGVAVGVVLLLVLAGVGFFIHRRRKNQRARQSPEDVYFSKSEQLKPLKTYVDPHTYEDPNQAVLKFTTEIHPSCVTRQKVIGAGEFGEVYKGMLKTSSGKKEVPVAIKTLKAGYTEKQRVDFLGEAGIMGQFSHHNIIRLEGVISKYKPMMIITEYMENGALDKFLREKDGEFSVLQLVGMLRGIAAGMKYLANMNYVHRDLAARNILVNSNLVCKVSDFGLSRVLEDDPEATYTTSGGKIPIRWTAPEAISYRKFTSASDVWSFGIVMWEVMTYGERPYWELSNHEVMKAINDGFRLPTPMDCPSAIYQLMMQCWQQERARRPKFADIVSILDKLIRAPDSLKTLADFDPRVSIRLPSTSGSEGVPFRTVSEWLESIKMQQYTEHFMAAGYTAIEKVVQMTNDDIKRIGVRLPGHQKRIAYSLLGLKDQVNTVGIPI

O=C(NNC(=O)c1csnn1)c1ccc(Cl)cc1
pEC50 (Plasmodium falciparum [1]): 6.74
pEC50 (Plasmodium falciparum [2]): 6.76
pEC50 (Plasmodium falciparum [3]): < 4.30
pEC50 (Plasmodium falciparum [4]): 6.97

C[C@H]1[C@@H](O)O[C@@H]2O[C@@]3(C)CC[C@H]4[C@H](C)CC[C@@H]1[C@@]24OO3 [ARTENIMOL]
log(activity) (Plasmodium falciparum [5]): 3.93
T99.9% (Plasmodium falciparum [6]): 31 h
Time (Plasmodium falciparum [7]): 0 h

CCN1CCN(Cc2ccc(NC(=O)c3cc(C)cc(NC(=O)c4cncc(-c5cccs5)c4)c3)cc2C(F)(F)F)CC1
EC50 at 48 h [8]: 5220 nM
pEC50 (Plasmodium falciparum [9]): 6.43
EC50 at 48 h [10]: 3200 nM
pEC50 (Plasmodium falciparum [11]): 6.63
selectivity ratio [12]: 14
Ratio EC50 (Plasmodium falciparum [13]): 1.6
selectivity ratio [14]: 8.6

CNC(=O)c1ccc(-c2cnc3cnc(C(=O)N(C)c4ccc(Cl)cc4)cn23)cc1
pEC50 (Plasmodium falciparum [1]): 8.22
pEC50 (Plasmodium falciparum [2]): 8.01
pEC50 (Plasmodium falciparum [3]): 8.38
pEC50 (Plasmodium falciparum [4]): 7.17

C[C@@H]1CC[C@H]2[C@@H](C)C(=O)O[C@@H]3O[C@@]4(C)CC[C@@H]1[C@]32OO4 [ARTEMISININ]
pEC50 (Plasmodium falciparum [1]): 8.54
pEC50 (Plasmodium falciparum [2]): 8.40
pEC50 (Plasmodium falciparum [3]): 8.29
pEC50 (Plasmodium falciparum [4]): 8.28

Cc1ccc(NC(=O)c2ccc(CN3CC[C@H](N(C)C)C3)c(C(F)(F)F)c2)cc1Nc1nccc(-c2cncnc2)n1 [BAFETINIB]
pEC50 (Plasmodium falciparum [15]): 5.89

CCN1CCN(Cc2ccc(NC(=O)c3cc(Cl)cc(NC(=O)c4cncc(-c5ccc(C#N)cc5)c4)c3)cc2C(F)(F)F)CC1
Activity (Plasmodium falciparum [16]): inactive
pEC50 (MCF7): 5.66
pEC50 (Plasmodium falciparum [9]): 7.44
intrinsic clearance [17]: 16 µL/min/mg
Activity (Plasmodium falciparum [18]): Active
Activity (Plasmodium falciparum [19]): Active
pEC50 (Plasmodium falciparum [20]): 7.38
log(activity) (Plasmodium falciparum [5]): 5.12
pEC50 (HepG2): 5.84
Activity (Plasmodium falciparum [21]): inactive
Activity (Plasmodium falciparum [22]): Active
Activity (Plasmodium falciparum [23]): Active
Activity (Plasmodium falciparum [24]): inactive
pEC50 (Plasmodium falciparum [11]): 7.44
selectivity ratio [12]: 61
T99.9% (Plasmodium falciparum [6]): < 32 h
pEC50 (Plasmodium falciparum [25]): 7.36
pEC50 (Plasmodium falciparum [26]): 7.19
Activity (Plasmodium falciparum [27]): inactive
pEC50 (Plasmodium falciparum [28]): 7.27
Ratio EC50 (Plasmodium falciparum [13]): 1
selectivity ratio [14]: 41
Time (Plasmodium falciparum [7]): 0 h
t1/2 [29]: 42.5 min

CC1(C)c2nc(-c3ccc(F)cc3)c(Nc3ccc(Cl)cc3)n2CCN1C(=O)CN
pEC50 (Plasmodium falciparum [1]): 8.74
Vd [30]: 11.8 L/kg
pEC50 (Plasmodium falciparum [2]): 5.86
pEC50 (Plasmodium falciparum [3]): 8.96
pEC50 (Plasmodium falciparum [4]): 8.72
half-life [31]: 534 min

CCN1CCN(Cc2ccc(NC(=O)c3cc(NC(=O)c4cncc(-c5cccs5)c4)cc(OC)c3)cc2C(F)(F)F)CC1
pEC50 (Plasmodium falciparum [32]): 6.47
pIC50 (Ephrin type-A receptor 2): < 5.00

Cc1cn(-c2cc(NC(=O)c3ccc(C)c(Nc4nccc(-c5cccnc5)n4)c3)cc(C(F)(F)F)c2)cn1 [NILOTINIB]
pEC50 (Plasmodium falciparum [15]): > 6.00

CCN1CCN(Cc2ccc(NC(=O)c3ccc(C)c(NC(=O)c4cncc(-c5cccs5)c4)c3)cc2C(F)(F)F)CC1
pEC50 (Plasmodium falciparum [32]): 5.41
pIC50 (Ephrin type-A receptor 2): 7.96

CCN1CCN(Cc2ccc(NC(=O)c3cc(Cl)cc(NC(=O)c4cncc(-c5ccccc5)c4)c3)cc2C(F)(F)F)CC1
pEC50 (MCF7): 5.36
pEC50 (Plasmodium falciparum [9]): 7.30
intrinsic clearance [17]: 14 µL/min/mg
pEC50 (HepG2): 5.48
pEC50 (Plasmodium falciparum [11]): 7.39
selectivity ratio [12]: 87
Ratio EC50 (Plasmodium falciparum [13]): 1.2
selectivity ratio [14]: 66
t1/2 [29]: 50.2 min

O=C1C(O)=C([C@H]2CC[C@H](c3ccc(Cl)cc3)CC2)C(=O)c2ccccc21 [ATOVAQUONE]
log(activity) (Plasmodium falciparum [5]): 2.95
T99.9% (Plasmodium falciparum [6]): 101 h
Time (Plasmodium falciparum [7]): 72 h

CCN1CCN(Cc2ccc(NC(=O)c3cc(Cl)cc(NC(=O)c4cncc(-c5ccco5)c4)c3)cc2C(F)(F)F)CC1
pEC50 (MCF7): 5.19
pEC50 (Plasmodium falciparum [9]): 7.29
intrinsic clearance [17]: 12 µL/min/mg
pEC50 (HepG2): 5.27
pEC50 (Plasmodium falciparum [11]): 7.24
selectivity ratio [12]: 127
Ratio EC50 (Plasmodium falciparum [13]): 0.9
selectivity ratio [14]: 106
t1/2 [29]: 58.1 min

CCN1CCN(Cc2ccc(NC(=O)c3cc(Cl)cc(NC(=O)c4cncc(-c5cncs5)c4)c3)cc2C(F)(F)F)CC1
pEC50 (MCF7): 5.09
pEC50 (Plasmodium falciparum [9]): 7.25
intrinsic clearance [17]: 13 µL/min/mg
pEC50 (HepG2): 5.22
pEC50 (Plasmodium falciparum [11]): 7.13
selectivity ratio [12]: 145
Ratio EC50 (Plasmodium falciparum [13]): 0.8
selectivity ratio [14]: 109
t1/2 [29]: 52.1 min
